Columns and labels:
[1] = molecular target: MAP/microtubule affinity-regulating kinase 3 (Homo sapiens) (UniProt P27448); details: Compound concentration 1000.0 nM
[2] = molecular target: AP2-associated protein kinase 1 (Homo sapiens) (UniProt Q2M2I8); details: Compound concentration 1000.0 nM
[3] = molecular target: Beta-1 adrenergic receptor (Homo sapiens) (UniProt P08588); details: Compound concentration 10.0 uM
[4] = molecular target: D(4) dopamine receptor (Homo sapiens) (UniProt P21917); details: Compound concentration 10.0 uM
[5] = molecular target: Ribosomal protein S6 kinase alpha-6 (Homo sapiens) (UniProt Q9UK32); details: Compound concentration 1000.0 nM
Sequence of Ribosomal protein S6 kinase alpha-6 (Homo sapiens) (Q9UK32 whole entry): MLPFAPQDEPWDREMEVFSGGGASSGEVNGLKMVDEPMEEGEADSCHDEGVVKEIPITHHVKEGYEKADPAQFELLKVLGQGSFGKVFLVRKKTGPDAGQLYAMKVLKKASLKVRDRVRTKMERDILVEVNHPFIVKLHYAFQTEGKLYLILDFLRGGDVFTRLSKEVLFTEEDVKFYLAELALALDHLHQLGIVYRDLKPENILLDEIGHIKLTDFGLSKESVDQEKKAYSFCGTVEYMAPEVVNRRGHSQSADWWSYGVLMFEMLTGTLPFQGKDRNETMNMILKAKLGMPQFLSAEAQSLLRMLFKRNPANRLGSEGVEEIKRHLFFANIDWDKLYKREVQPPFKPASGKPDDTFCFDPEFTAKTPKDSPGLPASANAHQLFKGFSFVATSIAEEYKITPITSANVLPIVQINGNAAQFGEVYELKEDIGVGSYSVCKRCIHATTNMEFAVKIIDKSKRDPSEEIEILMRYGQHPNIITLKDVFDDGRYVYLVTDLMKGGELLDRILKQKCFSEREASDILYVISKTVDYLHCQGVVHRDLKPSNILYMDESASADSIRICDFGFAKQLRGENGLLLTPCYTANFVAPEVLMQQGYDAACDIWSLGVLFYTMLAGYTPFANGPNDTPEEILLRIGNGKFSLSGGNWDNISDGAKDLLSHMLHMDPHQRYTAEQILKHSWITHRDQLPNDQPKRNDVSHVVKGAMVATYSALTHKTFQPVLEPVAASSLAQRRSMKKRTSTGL

[6] = molecular target: 5-hydroxytryptamine receptor 3A (Homo sapiens) (UniProt P46098); details: Compound concentration 10.0 uM
Sequence of 5-hydroxytryptamine receptor 3A (Homo sapiens) (P46098 whole entry): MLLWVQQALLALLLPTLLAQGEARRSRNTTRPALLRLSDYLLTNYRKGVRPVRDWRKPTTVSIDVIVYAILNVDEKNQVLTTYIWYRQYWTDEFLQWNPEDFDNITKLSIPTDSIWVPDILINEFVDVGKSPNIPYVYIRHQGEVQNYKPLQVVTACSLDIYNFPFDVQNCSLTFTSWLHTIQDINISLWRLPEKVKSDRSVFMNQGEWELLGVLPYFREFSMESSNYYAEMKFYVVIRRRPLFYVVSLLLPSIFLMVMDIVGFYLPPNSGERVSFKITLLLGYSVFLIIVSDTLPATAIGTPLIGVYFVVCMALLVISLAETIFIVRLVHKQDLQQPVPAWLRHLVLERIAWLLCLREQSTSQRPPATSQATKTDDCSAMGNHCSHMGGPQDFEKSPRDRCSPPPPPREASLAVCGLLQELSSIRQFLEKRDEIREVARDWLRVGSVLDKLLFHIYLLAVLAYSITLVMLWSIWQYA

[7] = molecular target: Serine/threonine-protein kinase WNK1 (Homo sapiens) (UniProt Q9H4A3); details: Compound concentration 1000.0 nM
[8] = molecular target: Tyrosine-protein kinase FRK (Homo sapiens) (UniProt P42685); details: Compound concentration 1000.0 nM
[9] = molecular target: Mu-type opioid receptor (Homo sapiens) (UniProt P35372); details: Compound concentration 10.0 uM
Sequence of Mu-type opioid receptor (Homo sapiens) (P35372 whole entry, canonical isoform): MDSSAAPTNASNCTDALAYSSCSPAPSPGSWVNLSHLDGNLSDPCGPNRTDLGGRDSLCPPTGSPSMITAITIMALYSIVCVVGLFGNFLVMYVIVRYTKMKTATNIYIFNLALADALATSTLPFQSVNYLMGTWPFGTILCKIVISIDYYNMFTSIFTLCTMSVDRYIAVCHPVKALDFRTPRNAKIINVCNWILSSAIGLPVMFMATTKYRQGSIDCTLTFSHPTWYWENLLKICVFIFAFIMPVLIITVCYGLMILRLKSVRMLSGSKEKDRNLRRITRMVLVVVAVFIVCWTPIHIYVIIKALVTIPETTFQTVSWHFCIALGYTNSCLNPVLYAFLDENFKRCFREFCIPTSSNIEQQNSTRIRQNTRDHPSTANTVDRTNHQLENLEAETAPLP

[10] = tested on: Phosphatidylinositol 4,5-bisphosphate 3-kinase catalytic subunit alpha isoform (Homo sapiens), P42336 [H1047L]; details: Compound concentration 1000.0 nM
[11] = molecular target: Tyrosine-protein kinase Lck (Homo sapiens) (UniProt P06239); details: Compound concentration 1000.0 nM
Sequence of Tyrosine-protein kinase Lck (Homo sapiens) (P06239 2-509 limits assumed): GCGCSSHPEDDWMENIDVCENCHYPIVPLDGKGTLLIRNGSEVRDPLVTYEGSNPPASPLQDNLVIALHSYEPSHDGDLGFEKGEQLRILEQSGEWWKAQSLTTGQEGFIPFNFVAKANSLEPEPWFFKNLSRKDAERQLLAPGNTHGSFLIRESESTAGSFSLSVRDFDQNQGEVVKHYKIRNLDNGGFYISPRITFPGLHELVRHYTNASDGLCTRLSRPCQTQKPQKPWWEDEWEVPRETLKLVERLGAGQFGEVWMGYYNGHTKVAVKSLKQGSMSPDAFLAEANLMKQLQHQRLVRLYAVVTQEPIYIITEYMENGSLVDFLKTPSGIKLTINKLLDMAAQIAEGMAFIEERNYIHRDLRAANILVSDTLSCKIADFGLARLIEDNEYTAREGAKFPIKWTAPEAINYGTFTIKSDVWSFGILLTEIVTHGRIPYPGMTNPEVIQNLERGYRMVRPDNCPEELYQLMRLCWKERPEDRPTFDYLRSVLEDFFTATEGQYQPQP

[12] = molecular target: T1, Bone morphogenetic protein receptor type-2 (Homo sapiens) (UniProt Q13873); details: Compound concentration 1000.0 nM
T1 sequence (whole entry): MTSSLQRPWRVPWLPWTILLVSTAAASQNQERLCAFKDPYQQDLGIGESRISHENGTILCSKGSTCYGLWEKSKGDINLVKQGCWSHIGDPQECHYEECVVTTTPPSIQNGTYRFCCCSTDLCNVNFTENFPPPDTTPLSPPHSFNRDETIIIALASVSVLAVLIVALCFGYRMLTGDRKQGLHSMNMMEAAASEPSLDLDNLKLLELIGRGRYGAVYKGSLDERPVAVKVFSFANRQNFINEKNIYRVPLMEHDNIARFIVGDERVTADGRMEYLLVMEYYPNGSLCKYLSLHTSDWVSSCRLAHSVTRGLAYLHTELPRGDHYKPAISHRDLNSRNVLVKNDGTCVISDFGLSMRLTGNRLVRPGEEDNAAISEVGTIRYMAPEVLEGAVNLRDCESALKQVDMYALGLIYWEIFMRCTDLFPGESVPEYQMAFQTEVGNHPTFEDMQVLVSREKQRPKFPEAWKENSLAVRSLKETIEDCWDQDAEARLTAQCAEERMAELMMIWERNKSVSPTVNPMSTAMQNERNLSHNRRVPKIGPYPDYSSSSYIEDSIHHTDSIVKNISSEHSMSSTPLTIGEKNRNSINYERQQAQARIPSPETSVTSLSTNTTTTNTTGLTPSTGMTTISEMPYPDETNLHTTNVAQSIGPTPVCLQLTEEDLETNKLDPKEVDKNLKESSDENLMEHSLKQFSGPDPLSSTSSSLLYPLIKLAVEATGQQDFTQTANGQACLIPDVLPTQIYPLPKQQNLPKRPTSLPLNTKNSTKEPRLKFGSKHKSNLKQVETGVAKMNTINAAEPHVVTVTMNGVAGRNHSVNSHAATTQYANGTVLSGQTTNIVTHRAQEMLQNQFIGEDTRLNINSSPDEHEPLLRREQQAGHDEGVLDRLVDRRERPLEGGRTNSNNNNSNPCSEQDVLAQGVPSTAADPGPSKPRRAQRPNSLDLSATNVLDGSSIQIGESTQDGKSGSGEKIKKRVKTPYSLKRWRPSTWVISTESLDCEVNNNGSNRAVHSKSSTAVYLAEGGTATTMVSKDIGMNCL

[13] = molecular target: D(1B) dopamine receptor (Homo sapiens) (UniProt P21918); details: Compound concentration 10.0 uM
[14] = molecular target: Serine/threonine-protein kinase Nek4 (Homo sapiens) (UniProt P51957); details: Compound concentration 1000.0 nM
[15] = molecular target: T2, Ephrin type-B receptor 4 (Homo sapiens) (UniProt P54760); details: Compound concentration 1000.0 nM
T2 sequence (whole entry): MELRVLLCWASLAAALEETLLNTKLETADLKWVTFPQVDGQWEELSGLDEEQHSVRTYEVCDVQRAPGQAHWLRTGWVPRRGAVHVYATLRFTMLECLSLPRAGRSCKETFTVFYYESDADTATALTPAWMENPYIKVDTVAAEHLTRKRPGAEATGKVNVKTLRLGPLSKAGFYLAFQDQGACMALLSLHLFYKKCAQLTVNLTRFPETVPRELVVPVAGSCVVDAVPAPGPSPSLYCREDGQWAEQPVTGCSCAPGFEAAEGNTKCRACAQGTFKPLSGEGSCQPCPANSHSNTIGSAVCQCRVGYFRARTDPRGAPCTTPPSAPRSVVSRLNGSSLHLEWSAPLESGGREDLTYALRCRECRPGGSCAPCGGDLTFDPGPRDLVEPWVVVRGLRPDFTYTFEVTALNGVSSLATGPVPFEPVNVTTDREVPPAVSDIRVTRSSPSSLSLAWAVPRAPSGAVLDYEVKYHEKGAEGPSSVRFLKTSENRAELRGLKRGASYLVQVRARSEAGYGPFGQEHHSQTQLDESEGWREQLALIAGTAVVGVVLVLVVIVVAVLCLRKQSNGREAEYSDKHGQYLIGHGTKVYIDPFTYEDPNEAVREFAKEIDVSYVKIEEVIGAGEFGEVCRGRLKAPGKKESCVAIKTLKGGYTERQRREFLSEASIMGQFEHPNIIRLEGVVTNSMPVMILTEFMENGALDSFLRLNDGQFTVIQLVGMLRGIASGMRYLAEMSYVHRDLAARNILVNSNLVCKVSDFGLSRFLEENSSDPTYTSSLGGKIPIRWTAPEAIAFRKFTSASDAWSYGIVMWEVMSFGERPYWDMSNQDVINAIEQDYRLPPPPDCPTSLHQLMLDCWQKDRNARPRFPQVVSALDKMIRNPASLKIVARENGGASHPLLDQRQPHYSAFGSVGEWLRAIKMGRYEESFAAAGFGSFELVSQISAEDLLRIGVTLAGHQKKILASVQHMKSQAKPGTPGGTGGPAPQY

[16] = molecular target: Cyclin-dependent kinase 18 (Homo sapiens) (UniProt Q07002); details: Compound concentration 1000.0 nM
Sequence of Cyclin-dependent kinase 18 (Homo sapiens) (Q07002 whole entry): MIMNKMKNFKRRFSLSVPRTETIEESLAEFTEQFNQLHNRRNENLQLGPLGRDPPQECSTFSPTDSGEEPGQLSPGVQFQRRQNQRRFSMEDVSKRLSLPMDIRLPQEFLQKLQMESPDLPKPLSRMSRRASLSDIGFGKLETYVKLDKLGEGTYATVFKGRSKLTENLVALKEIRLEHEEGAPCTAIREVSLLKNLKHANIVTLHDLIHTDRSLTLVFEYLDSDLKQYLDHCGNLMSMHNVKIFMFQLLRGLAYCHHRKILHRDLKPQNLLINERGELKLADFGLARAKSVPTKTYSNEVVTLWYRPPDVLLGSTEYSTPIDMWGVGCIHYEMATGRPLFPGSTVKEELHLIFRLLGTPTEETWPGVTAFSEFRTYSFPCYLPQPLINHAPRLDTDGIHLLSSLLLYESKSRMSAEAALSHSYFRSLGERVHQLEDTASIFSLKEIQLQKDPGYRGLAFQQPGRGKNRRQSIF

Sequence of Beta-1 adrenergic receptor (Homo sapiens) (P08588 whole entry, looked up): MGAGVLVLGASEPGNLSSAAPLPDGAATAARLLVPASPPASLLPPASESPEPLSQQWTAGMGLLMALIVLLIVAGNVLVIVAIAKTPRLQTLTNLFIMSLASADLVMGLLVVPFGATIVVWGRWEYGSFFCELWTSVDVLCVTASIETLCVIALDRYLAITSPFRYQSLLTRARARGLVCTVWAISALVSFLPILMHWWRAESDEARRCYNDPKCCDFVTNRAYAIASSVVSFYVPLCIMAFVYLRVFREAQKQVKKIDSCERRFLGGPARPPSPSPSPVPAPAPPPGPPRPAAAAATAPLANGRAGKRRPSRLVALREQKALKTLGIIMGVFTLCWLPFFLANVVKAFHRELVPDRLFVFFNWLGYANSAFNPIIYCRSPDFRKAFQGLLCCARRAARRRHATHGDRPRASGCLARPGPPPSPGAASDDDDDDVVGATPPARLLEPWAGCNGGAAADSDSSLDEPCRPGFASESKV
Sequence of MAP/microtubule affinity-regulating kinase 3 (Homo sapiens) (P27448 whole entry, looked up): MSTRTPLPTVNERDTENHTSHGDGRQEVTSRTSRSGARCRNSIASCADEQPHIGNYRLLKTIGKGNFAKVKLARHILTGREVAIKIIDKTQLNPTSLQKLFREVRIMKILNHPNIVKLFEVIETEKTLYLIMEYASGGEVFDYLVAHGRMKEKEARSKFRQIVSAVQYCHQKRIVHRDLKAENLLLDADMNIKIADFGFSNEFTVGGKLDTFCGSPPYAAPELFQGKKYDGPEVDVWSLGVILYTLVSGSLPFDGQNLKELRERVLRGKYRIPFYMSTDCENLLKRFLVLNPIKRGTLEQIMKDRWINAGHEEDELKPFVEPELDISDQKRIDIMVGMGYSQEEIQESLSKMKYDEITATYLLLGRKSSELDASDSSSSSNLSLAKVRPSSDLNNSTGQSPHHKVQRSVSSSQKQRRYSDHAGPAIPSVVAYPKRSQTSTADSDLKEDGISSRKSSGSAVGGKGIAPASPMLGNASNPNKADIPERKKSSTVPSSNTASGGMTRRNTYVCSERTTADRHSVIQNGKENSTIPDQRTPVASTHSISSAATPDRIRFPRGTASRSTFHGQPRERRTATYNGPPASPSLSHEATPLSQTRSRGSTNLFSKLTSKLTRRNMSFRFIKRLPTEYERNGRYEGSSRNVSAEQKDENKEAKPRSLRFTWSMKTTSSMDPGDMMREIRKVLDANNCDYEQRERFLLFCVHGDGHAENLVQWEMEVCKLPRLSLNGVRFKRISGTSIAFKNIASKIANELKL
Sequence of AP2-associated protein kinase 1 (Homo sapiens) (Q2M2I8 whole entry, looked up): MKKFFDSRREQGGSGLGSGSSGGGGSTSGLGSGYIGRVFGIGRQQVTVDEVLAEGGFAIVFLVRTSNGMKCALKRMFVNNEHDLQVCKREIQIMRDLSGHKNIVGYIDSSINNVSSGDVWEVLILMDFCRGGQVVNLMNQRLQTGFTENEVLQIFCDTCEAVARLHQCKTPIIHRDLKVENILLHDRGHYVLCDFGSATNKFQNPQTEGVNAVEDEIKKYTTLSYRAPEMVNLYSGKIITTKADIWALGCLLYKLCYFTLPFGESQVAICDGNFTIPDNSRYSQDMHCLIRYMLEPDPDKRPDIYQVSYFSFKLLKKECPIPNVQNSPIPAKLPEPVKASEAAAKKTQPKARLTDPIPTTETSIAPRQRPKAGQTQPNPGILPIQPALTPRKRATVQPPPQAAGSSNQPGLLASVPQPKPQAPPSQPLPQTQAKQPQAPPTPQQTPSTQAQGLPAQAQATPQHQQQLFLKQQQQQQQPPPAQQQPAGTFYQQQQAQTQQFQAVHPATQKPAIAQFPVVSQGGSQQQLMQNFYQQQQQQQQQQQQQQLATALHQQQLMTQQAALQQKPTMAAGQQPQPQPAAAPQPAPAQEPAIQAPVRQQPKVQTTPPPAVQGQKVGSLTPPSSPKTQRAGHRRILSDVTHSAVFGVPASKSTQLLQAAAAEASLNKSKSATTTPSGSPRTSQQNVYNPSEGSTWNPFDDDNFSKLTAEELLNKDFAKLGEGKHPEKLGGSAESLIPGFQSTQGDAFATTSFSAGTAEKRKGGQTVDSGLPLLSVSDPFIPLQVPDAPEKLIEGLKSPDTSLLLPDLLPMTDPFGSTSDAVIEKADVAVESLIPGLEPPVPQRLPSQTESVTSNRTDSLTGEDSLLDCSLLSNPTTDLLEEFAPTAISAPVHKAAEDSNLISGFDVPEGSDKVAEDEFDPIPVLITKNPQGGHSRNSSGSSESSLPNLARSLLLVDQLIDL

CN1CCN(c2cnc3c(C4CCN(C(=O)c5ccc(OC(F)(F)F)cc5N)CC4)ncnc3c2)CC1 [BAY-885]
inactive: residual activity [1] 93% | residual activity [2] 100% | inhibition [3] 12.6% | inhibition [4] 12.7% | residual activity [5] 100% | inhibition [6] 5.22% | residual activity [7] 100% | residual activity [8] 100% | inhibition [9] 13.2% | residual activity [10] 100% | residual activity [11] 100% | residual activity [12] 100% | inhibition [13] 4.63% | residual activity [14] 100% | residual activity [15] 100% | residual activity [16] 100%

Cc1nc(C2CCN(C(=O)c3ccc(OC(F)(F)F)cc3N)CC2)c2ncc(N3CCN(C)CC3)cc2n1 [BAY-693]
inactive: residual activity [1] 89% | residual activity [2] 100% | inhibition [3] 17.9% | inhibition [4] 1.98% | residual activity [5] 100% | inhibition [6] 6.25% | residual activity [7] 94% | residual activity [8] 95% | inhibition [9] -1.66% | residual activity [10] 87% | residual activity [11] 100% | residual activity [12] 100% | inhibition [13] 12.4% | residual activity [14] 100% | residual activity [15] 92% | residual activity [16] 100%
